Reference: patent publication US20200230205A1, “COMPOSITIONS AND METHODS FOR TREATING MYELIN DISORDERS” (CASE WESTERN RESERVE UNIVERSITY, priority 2017, published 2020)

Legend:
Format in all cases: cell-based, mouse
[1] = test system: oligodendrocyte progenitor cells (OPCs); assay: Ki-67 proliferation and TUNEL apoptosis of OPCs on aggrecan/laminin
Experimental: To assess proliferation, OPCs were plated on 24-well coverslips that were precoated with PLL, 1 μg/mL laminin, and 2 μg/mL aggrecan. OPCs were treated with vehicle, 2.5 μM ISP or SISP immediately upon plating for 2 days at 37° C. Coverslips were fixed and stained using the same method described in the immunocytochemistry section with Ki-67 (550609, BD Pharmingen, 1:500) and O4 (1:10). Coverslips were imaged and counted. To assess apoptosis, OPCs were cultured in the same fashion and incubated with vehicle or 1 μg/mL LPC for 2 hours at 2 days following vehicle, 2.5 μM ISP or SISP incubation. Coverslips were then fixed with PFA and methanol then stained using APO-BrdU TUNEL assay kit (A23210, ThermoFisher) and guidelines with an O/N incubation of the primary antibody at RT. Coverslips were additionally costained with DAPI (D9542, Sigma, 1:10,000) then imaged and counted.

aggrecan (CS56) = assay: CSPG degradation by OPC conditioned media (CS56 spot quantification and western blot of aggrecan)
Experimental: (§1) CSPG gradients were prepared as described previously (Tom, V. J., et al. Studies on the Development and Behavior of the Dystrophic Growth Cone, the Hallmark of Regeneration Failure, in an In vitro Model of the Glial Scar and after Spinal Cord Injury.). 24-well glass coverslip were coated with poly-L-lysine and nitrocellulose, and a mixture of 700 μg/mL aggrecan (A1960 Sigma) and 10 μg/mL laminin (11243217001 Sigma) spotted on the coated coverslip. After drying, coated coverslips were then incubated with laminin at 37° C. for 3h. Purified OPCs were plated at a density of 10,000/coverslip and cultured in DMEM/F12 medium containing with N2, PDGF (20 ng/ml), FGF (20 ng/ml), NT-3 (5 ng/ml), CNTF (O1 ng/ml), Glutamine (200 mM). Coverslips were stained with CS-56 (C8035, Sigma, 1:500) and O4 antibodies (Hybridoma Core Cleveland Clinic, 1:10). O4-positive cells crossing the aggrecan border were counted for each spot. For CSPG gradient quantification, 1×10^6 OPCs were plated per well on PLL, 1 μg/mL laminin, and 2 μg/mL aggrecan coated 6-well plates. OPCs treated with vehicle, 2.5 μM ISP, or 2.5 μM SISP for 2 days at 37° C. CM was harvested and incubated with freshly made spots. Spots were incubated with CM for 2 days at 37° C. then stained with CS-56 and laminin (L9393, Sigma, 1:1000) antibodies and consistently imaged. Using ImageJ software (NIH), pixel intensities of the CS-56 or laminin spot rims were quantified using the same ROI. For cultured spinal cord explant, the spinal cords of cervical and thoracic of P1 mouse pups were chopped into 1-2 mm tissue pieces and transferred to the coverslip. Explants were cultured in DMEM/F12 medium with 15% FBS (Hyclone), O1 ng/ml PDGF (Sigma) and N2 supplement (Invitrogen). For ISP treatment, 2.5 uM ISP was added to the media at the time of plating. 25 μM GM6001 (2983, Tocris), 100 nM MMP-2 inhibitor (444244, Calbiochem), and/or 2.5 μM ISP or SISP was used.
CM was harvested from 1×10^6 OPCs incubated on PLL, 1 μg/mL laminin, and 2 μg/mL aggrecan coated 6-well plates. OPCs were treated with vehicle, 2.5 μM ISP, or 2.5 μM SISP in conjunction with 10 μg/mL Exo1 (ab120292, Abcam), or 25 μM GM6001 (364205, Calbiochem) for 2 days at 37° C. […] CM of each cell-strained group was incubated with 20 μg/mL aggrecan and/or 10 μg/mL laminin for 2 hours in lmL Eppendorf tubes at 37° C. As a positive control, OPC media was incubated with aggrecan and incubated in the same fashion. Western blots were then performed as described below with incubation against CS-56 and/or laminin antibodies.

[2] = test system: oligodendrocyte progenitor cells (OPCs); assay: CSPG gradient crossing (spot) assay, OPC migration
Experimental: as §1

laminin = assay: Laminin degradation by OPC conditioned media (spot staining and western blot)
Experimental: as §1, with “Spots were incubated with CM for 2 days at 37° C. then stained with CS-56 and laminin (L9393, Sigma, 1:1000) antibodies and consistently imaged.” left out, “For cultured spinal cord explant, the spinal cords of cervical and thoracic of P1 mouse pups were chopped into 1-2 mm tissue pieces and transferred to the coverslip. Explants were cultured in DMEM/F12 medium with 15% FBS (Hyclone), O1 ng/ml PDGF (Sigma) and N2 supplement (Invitrogen). For ISP treatment, 2.5 uM ISP was added to the media at the time of plating. 25 μM GM6001 (2983, Tocris), 100 nM MMP-2 inhibitor (444244, Calbiochem), and/or 2.5 μM ISP or SISP was used.” left out

MMP-10 = MMP-10 western blot of OPC conditioned media; conditions: OPC CM, 2.5 μM peptide, same as vehicle
Experimental: To assess MMP-2 or 10 in OPC CM or lysates, OPCs were incubated on precoated PLL, aggrecan, and laminin as described above. OPCs were treated with vehicle, 2.5 μM ISP or SISP for 2 days at 37° C. CM was then harvested and concentrated using Milipore Ultracel YM-C centrifugal filter units at max speed (Eppendorf Centrifuge […]) for 30 minutes at 4° C. […] of concentrated CM was loaded into each lane. OPC lysates were assessed using western blot techniques described below with […] protein loaded from each group. Tissue samples or cerebellar slices or purified OPC cells were homogenized with RIPA lysis buffer and protein concentration was determined by Pierce BCA protein assay kit according to the manufacture instruction (Thermo Fisher). Then, equal amounts of protein were loaded to 15% SDS-PAGE gels, and electrophoretically transferred to PVDF membranes (Millipore). The membranes were blocked in 0.1% TPBS buffer with 5% non-fat milk for 1h at room temperature and probed with indicated primary antibodies overnight at 4° C. and followed by secondary antibody conjugated to horseradish peroxidase (HRP). […] Enhanced chemiluminescence was performed with a West Pico Kit (Thermo Fisher) and detected by FluorChem E system (ProteinSimple, USA). The density of bands was quantified using ImageJ software (NIH).

| Molecule | apoptosis (TUNEL) following LPC treatment ([1]; 100 nM OA-Hy with ISP, LPC 1 μg/mL 2 hours, vs LPC-ISP) | TUNEL+ cells/total cells ([1]; 100 nM OA-Hy, 2 days in vitro, no LPC) | CS56 spot degradation (aggrecan (CS56); 25 μM GM6001 or 100 nM OA-Hy with 2.5 μM ISP) | aggrecan GAG digestion (CS56 immunoblot) (aggrecan (CS56); Exo1 10 μg/mL, GM6001 25 μM or OA-Hy 100 nM with 2.5 μM ISP) | OPC entry into the CSPG-rich area ([2]; 25 μM GM6001 or 100 nM OA-Hy, even in the presence of ISP) | laminin portion of the spot, immunostaining (laminin; CM of OPCs treated with 2.5 μM ISP) | laminin immunoblot (laminin; OPC CM, 2.5 μM ISP, laminin 10 μg/mL) | OPC proliferation (Ki67) ([1]; 2.5 μM peptide, 2 div, laminin 1 and aggrecan 2 μg/mL, vs control) | OPC death (TUNEL) after LPC challenge ([1]; LPC 1 μg/mL, 2 hours, 2.5 μM ISP) | percentage of apoptotic cells (TUNEL) ([1]; OPCs on low laminin and aggrecan, 2.5 μM ISP) | MMP-10 secretion, western blot (MMP-10) | CS56 immunoblot of aggrecan incubated with OPC CM (aggrecan (CS56); 2.5 μM ISP, aggrecan 20 μg/mL) | CS56 expression of aggrecan/laminin spots (aggrecan (CS56); CM of OPCs treated with 2.5 μM ISP, vs vehicle, SISP and no cell control) | CS56 band, western blot (aggrecan (CS56); ISP at 2.5 and 5 μM doses vs control) | aggrecan digestion, dependence on ISP dose (western blot) (aggrecan (CS56); varying doses of ISP, aggrecan 20 μg/mL, 2 hours) | O4+ OPCs crossing the CSPG barrier ([2]; purified OPCs, 2.5 μM ISP vs control) |
| --- | --- | --- | --- | --- | --- | --- | --- | --- | --- | --- | --- | --- | --- | --- | --- | --- |
| CCCCCCCC/C=C\CCCCCCCC(=O)NO [OA-Hy, reference compound] | increased apoptosis | did not significantly increase | additionally rescued CS56 spot degradation | partially rescued | effectively halted OPC entry | – | – | – | – | – | – | – | – | – | – | – |
| GRKKRRQRRRCDMAEHMERLKANDSLKLSQEYESI [ISP] | – | – | – | – | – | completely spared | no significant changes | no significant differences | decreased OPC death | decreased the percentage of apoptotic cells | equally low amounts | significant CS56 degradation | significantly reduced CS56 expression | significant ISP-treated CS56 degradation | dose-dependent manner | significantly induced greater O4+ OPC migration |
